A word on the inhibition: it is the relative decrease from the control value, in per cent.

Three compounds from ChEMBL document CHEMBL4118098, “Discovery of DS28120313 as a potent orally active hepcidin production inhibitor: Design and optimization of novel 4,6-disubstituted indazole derivatives” (Bioorg Med Chem Lett, 2017) can be followed below.

Assay [1] deals with Tyrosine-protein kinase ABL1 (Homo sapiens) (UniProt P00519). In words: Inhibition of ABL (unknown origin) at 0.164 uM relative to control.
Assay [2] addresses Tyrosine-protein kinase Fyn (Homo sapiens) (UniProt P06241). In words: Inhibition of FYN (unknown origin) at 0.164 uM relative to control.
The target in assay [3] is PAS domain-containing serine/threonine-protein kinase (Homo sapiens) (UniProt Q96RG2). In words: Inhibition of PASK (unknown origin) at 0.164 uM relative to control.
Assay [4] has as its target MAP kinase-interacting serine/threonine-protein kinase 1 (Homo sapiens) (UniProt Q9BUB5). Nature of the assay: Inhibition of MNK1 (unknown origin) at 0.164 uM relative to control.
Assay [5] concerns the target Calcium/calmodulin-dependent protein kinase type 1D (Homo sapiens) (UniProt Q8IU85). In words: Inhibition of CamK1d (unknown origin) at 0.164 uM relative to control.
The target of assay [6] is Serine/threonine-protein kinase 10 (Homo sapiens) (UniProt O94804). Nature of the assay: Inhibition of LOK (unknown origin) at 0.164 uM relative to control.
Assay [7] addresses Cyclin-dependent kinase 3 (Homo sapiens) (UniProt Q00526). In words: Inhibition of CDK3 (unknown origin) at 0.164 uM relative to control.
In assay [8] the target is High affinity nerve growth factor receptor (Homo sapiens) (UniProt P04629). Nature of the assay: Inhibition of TRKA (unknown origin) at 0.164 uM relative to control.
Assay [9] concerns the target Mitogen-activated protein kinase 11 (Homo sapiens) (UniProt Q15759). In words: Inhibition of p38-beta2 (unknown origin) at 0.164 uM relative to control.
Assay [10] concerns the target Tyrosine-protein kinase HCK (Homo sapiens) (UniProt P08631). In words: Inhibition of Hck (unknown origin) at 0.164 uM relative to control.
Assay [11] addresses Cyclin-dependent kinase 1/cyclin B1 (Homo sapiens) (UniProt P06493+P14635). Nature of the assay: Inhibition of CDK1/CyclinB (unknown origin) at 0.164 uM relative to control. Format: protein-complex assay.
Assay [12] addresses T1, Mitogen-activated protein kinase 12 (Homo sapiens) (UniProt P53778).
T1 sequence (whole entry): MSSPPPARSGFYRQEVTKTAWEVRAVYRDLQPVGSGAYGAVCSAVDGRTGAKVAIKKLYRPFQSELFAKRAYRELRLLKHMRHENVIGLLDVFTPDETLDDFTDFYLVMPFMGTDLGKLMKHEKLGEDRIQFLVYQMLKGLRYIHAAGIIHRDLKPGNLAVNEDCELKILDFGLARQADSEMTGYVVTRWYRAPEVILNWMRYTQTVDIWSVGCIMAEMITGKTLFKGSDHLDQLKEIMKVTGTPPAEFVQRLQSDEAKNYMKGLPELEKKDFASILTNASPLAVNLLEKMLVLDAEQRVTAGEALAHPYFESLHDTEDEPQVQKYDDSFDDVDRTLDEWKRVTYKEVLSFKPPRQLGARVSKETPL
Nature of the assay: Inhibition of p38-gamma (unknown origin) at 0.45 uM relative to control.

Assay [13] relates to Mast/stem cell growth factor receptor Kit (Homo sapiens), P10721 [T670I]. Nature of the assay: Inhibition of KIT T670I mutant (unknown origin) at 0.45 uM relative to control.
The target of assay [14] is Calcium/calmodulin-dependent protein kinase type 1 (Homo sapiens) (UniProt Q14012). Nature of the assay: Inhibition of CaMK1a (unknown origin) at 0.45 uM relative to control.
Calcium/calmodulin-dependent protein kinase type 1 (Homo sapiens), sequence (Q14012 whole entry, looked up): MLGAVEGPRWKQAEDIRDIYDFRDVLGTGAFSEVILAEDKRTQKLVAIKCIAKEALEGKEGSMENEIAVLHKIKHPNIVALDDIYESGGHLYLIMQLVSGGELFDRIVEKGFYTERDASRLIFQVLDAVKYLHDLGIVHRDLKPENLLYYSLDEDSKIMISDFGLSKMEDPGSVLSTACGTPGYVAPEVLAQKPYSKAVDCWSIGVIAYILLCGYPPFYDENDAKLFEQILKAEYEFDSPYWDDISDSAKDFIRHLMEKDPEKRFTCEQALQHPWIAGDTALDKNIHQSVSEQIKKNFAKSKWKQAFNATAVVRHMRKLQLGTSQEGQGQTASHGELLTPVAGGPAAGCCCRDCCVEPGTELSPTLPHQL
Assay [15] concerns the target Cytoplasmic tyrosine-protein kinase BMX (Homo sapiens) (UniProt P51813). In words: Inhibition of BMX (unknown origin) at 0.19 uM relative to control.
Assay [16] deals with Hepatocyte growth factor receptor (Homo sapiens), P08581 [M1250T]. In words: Inhibition of MET M1250T mutant (unknown origin) at 0.19 uM relative to control.
The target of assay [17] is Serine/threonine-protein kinase 3 (Homo sapiens) (UniProt Q13188). Nature of the assay: Inhibition of MST2 (unknown origin) at 0.19 uM relative to control.
The target of assay [18] is Dual specificity tyrosine-phosphorylation-regulated kinase 1A (Homo sapiens) (UniProt Q13627). In words: Inhibition of DYRK1a (unknown origin) at 0.19 uM relative to control.
The target of assay [19] is Ephrin type-A receptor 1 (Homo sapiens) (UniProt P21709). Nature of the assay: Inhibition of EPHA1 (unknown origin) at 0.19 uM relative to control.
Assay [20] addresses Ephrin type-B receptor 4 (Homo sapiens) (UniProt P54760). Nature of the assay: Inhibition of EPHB4 (unknown origin) at 0.19 uM relative to control.
Assay [21] concerns the target Receptor tyrosine-protein kinase erbB-4 (Homo sapiens) (UniProt Q15303). In words: Inhibition of HER4 (unknown origin) at 0.19 uM relative to control.
Assay [22] concerns the target cAMP-dependent protein kinase catalytic subunit PRKX (Homo sapiens) (UniProt P51817). In words: Inhibition of PRKX (unknown origin) at 0.19 uM relative to control.
The target of assay [23] is Glycogen synthase kinase-3 alpha (Homo sapiens) (UniProt P49840). In words: Inhibition of GSK3-alpha (unknown origin) at 0.19 uM relative to control.
Glycogen synthase kinase-3 alpha (Homo sapiens), sequence (P49840 2-483 limits assumed): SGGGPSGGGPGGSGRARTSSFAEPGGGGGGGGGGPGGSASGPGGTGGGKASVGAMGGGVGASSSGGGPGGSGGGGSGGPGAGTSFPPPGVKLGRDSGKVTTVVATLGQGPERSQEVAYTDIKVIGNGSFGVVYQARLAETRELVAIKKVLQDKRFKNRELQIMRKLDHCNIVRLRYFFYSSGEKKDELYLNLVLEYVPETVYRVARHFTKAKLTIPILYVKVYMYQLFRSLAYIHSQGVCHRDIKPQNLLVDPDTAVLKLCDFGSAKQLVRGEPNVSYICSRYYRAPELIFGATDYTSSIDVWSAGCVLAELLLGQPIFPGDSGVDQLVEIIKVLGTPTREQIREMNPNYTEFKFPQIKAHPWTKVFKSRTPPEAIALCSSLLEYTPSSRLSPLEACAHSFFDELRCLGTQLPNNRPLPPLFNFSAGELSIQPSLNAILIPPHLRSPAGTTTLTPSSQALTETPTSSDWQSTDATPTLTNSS
Assay [24] deals with Casein kinase I isoform epsilon (Homo sapiens) (UniProt P49674). In words: Inhibition of CK1-epsilon (unknown origin) at 0.19 uM relative to control.
Casein kinase I isoform epsilon (Homo sapiens), sequence (P49674 whole entry, looked up, canonical isoform): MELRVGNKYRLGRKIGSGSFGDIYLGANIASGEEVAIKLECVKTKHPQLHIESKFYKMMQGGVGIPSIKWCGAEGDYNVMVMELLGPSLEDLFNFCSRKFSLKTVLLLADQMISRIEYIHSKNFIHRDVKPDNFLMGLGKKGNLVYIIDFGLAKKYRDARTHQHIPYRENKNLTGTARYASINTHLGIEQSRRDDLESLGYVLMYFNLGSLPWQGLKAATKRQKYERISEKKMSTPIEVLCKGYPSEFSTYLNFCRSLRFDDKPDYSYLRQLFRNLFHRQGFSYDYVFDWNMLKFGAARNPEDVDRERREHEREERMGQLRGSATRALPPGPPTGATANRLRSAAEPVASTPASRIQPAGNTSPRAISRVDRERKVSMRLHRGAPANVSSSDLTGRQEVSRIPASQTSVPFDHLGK
Assay [25] has as its target Serine/threonine-protein kinase PAK 4 (Homo sapiens) (UniProt O96013). Nature of the assay: Inhibition of PAK4 (unknown origin) at 0.19 uM relative to control.
Assay [26] deals with Serine/threonine-protein kinase PAK 3 (Homo sapiens) (UniProt O75914). In words: Inhibition of PAK3 (unknown origin) at 0.19 uM relative to control.
For assay [27], the system named is Tyrosine-protein kinase ABL1 (Homo sapiens), P00519 [H396P]. In words: Inhibition of Abl H396P mutant (unknown origin) at 0.19 uM relative to control.
The target of assay [28] is Homeodomain-interacting protein kinase 1 (Homo sapiens) (UniProt Q86Z02). Nature of the assay: Inhibition of HIPK1 (unknown origin) at 0.19 uM relative to control.
Assay [29] deals with Homeodomain-interacting protein kinase 2 (Homo sapiens) (UniProt Q9H2X6). In words: Inhibition of HIPK2 (unknown origin) at 0.19 uM relative to control.
Assay [30] deals with Ribosomal protein S6 kinase alpha-6 (Homo sapiens) (UniProt Q9UK32). In words: Inhibition of RSK4 (unknown origin) at 0.19 uM relative to control.
Ribosomal protein S6 kinase alpha-6 (Homo sapiens), sequence (Q9UK32 whole entry): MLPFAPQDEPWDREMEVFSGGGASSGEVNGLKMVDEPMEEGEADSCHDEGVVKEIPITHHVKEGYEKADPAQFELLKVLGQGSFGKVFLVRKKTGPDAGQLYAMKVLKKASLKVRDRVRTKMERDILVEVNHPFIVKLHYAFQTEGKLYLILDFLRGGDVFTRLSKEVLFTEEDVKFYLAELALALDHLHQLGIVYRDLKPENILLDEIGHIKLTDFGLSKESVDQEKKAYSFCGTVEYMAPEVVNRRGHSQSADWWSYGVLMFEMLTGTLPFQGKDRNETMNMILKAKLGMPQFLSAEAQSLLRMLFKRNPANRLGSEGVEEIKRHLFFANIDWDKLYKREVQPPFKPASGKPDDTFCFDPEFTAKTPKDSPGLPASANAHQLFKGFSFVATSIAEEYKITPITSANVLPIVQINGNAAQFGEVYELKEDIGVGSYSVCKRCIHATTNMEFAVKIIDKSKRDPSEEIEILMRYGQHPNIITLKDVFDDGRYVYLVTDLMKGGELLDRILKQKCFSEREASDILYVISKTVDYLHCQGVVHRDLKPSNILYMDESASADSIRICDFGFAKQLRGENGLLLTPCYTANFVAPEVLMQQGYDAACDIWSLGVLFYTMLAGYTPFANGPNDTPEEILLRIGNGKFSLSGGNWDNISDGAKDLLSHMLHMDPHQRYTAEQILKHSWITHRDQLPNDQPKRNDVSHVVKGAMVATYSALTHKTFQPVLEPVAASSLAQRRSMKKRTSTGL
Assay [31] addresses Ephrin type-A receptor 8 (Homo sapiens) (UniProt P29322). Nature of the assay: Inhibition of EPHA8 (unknown origin) at 0.19 uM relative to control.
The target of assay [32] is Tyrosine-protein kinase Blk (Homo sapiens) (UniProt P51451). Nature of the assay: Inhibition of BLK (unknown origin) at 0.19 uM relative to control.
Assay [33] has as its target STE20-like serine/threonine-protein kinase (Homo sapiens) (UniProt Q9H2G2). In words: Inhibition of SLK (unknown origin) at 0.19 uM relative to control.
The test system of assay [34] is Fibroblast growth factor receptor 4 (Homo sapiens), P22455 [V550L]. Nature of the assay: Inhibition of FGFR4 V550L mutant (unknown origin) at 0.19 uM relative to control.

Tyrosine-protein kinase Fyn (Homo sapiens), sequence (P06241 2-537 limits assumed): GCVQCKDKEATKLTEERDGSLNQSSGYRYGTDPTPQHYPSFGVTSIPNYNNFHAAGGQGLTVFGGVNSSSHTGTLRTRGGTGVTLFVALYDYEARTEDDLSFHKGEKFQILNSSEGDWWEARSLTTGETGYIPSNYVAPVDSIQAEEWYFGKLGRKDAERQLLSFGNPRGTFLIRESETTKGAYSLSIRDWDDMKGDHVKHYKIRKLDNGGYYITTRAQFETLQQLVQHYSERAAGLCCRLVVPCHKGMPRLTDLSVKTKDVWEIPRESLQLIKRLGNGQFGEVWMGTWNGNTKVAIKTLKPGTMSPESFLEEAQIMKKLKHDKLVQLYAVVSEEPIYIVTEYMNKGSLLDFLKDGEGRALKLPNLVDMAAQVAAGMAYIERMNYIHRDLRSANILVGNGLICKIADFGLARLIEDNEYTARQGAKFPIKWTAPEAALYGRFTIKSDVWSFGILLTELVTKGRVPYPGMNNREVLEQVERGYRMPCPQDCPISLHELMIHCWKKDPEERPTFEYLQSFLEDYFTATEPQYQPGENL
Cytoplasmic tyrosine-protein kinase BMX (Homo sapiens), sequence (P51813 whole entry): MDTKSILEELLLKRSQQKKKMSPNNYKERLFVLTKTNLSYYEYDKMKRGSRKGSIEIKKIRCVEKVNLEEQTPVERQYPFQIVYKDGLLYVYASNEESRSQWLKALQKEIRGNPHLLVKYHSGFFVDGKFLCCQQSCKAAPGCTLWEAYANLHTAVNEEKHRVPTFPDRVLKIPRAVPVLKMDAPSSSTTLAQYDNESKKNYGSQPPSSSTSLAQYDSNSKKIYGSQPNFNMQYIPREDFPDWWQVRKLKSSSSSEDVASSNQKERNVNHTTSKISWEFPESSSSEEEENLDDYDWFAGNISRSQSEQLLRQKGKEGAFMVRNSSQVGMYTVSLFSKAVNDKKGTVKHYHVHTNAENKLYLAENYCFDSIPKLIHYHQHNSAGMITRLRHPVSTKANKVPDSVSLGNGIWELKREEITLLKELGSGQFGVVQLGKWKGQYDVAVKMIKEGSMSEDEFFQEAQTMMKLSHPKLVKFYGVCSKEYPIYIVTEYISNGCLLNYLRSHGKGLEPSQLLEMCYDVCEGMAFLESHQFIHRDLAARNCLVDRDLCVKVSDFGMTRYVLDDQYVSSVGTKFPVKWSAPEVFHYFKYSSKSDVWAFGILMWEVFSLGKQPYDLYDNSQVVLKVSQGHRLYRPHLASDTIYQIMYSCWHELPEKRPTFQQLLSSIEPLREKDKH
cAMP-dependent protein kinase catalytic subunit PRKX (Homo sapiens), sequence (P51817 whole entry): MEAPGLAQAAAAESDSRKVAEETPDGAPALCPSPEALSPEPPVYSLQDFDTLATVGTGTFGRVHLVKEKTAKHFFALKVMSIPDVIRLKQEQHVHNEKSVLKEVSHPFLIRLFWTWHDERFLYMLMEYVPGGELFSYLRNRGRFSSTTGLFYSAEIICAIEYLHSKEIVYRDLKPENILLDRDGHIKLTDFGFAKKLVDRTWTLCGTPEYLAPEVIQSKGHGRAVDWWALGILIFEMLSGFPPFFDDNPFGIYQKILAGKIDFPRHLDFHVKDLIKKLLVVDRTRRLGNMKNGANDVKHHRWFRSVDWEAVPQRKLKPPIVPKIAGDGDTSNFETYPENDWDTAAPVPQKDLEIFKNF
Cyclin-dependent kinase 1/cyclin B1 (Homo sapiens), sequence (P06493 whole entry, looked up): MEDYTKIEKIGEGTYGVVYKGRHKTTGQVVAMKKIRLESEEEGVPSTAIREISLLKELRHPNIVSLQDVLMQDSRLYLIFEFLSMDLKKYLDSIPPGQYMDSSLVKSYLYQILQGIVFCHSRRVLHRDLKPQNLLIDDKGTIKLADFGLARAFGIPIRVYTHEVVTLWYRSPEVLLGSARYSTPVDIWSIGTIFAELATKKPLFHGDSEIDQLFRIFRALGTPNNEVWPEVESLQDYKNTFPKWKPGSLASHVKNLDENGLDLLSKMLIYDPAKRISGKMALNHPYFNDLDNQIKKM
Cyclin-dependent kinase 1/cyclin B1 (Homo sapiens), sequence (P14635 whole entry, looked up): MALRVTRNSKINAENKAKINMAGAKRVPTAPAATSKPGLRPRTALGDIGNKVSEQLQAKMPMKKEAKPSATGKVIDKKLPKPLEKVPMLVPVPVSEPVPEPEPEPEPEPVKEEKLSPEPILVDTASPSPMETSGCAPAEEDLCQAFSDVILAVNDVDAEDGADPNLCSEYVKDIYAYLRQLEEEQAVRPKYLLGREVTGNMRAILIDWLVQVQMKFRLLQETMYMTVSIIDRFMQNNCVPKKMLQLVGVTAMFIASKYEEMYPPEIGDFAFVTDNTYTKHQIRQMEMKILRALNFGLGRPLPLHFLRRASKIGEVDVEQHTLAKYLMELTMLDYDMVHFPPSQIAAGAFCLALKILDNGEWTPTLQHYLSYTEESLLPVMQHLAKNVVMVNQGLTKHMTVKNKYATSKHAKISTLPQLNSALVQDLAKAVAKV
MAP kinase-interacting serine/threonine-protein kinase 1 (Homo sapiens), sequence (Q9BUB5 whole entry, looked up): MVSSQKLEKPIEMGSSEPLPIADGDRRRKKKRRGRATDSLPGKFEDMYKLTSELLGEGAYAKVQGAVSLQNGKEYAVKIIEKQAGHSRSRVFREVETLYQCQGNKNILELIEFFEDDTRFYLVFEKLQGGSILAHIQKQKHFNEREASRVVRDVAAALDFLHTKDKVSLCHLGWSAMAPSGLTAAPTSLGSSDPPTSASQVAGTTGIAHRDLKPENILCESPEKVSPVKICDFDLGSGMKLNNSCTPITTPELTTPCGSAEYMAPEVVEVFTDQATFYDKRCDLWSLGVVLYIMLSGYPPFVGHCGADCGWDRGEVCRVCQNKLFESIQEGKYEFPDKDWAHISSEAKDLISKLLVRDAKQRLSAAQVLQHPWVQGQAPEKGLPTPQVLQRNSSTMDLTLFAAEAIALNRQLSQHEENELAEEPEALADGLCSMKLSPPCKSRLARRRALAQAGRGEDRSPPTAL

As for `COC(=O)Nc1cc(-c2c(C3CC3)n[nH]c2C)cc2[nH]ncc12`, the inhibition in assay [1] is 7%; in [2], 10.3%; in assay [3] it was -3%; in assay [4] it was 3.3%; in [5], -9.3%; in assay [6], 3.7%. For the same compound, the inhibition in [7] was -8.3%; in assay [8], 1.3%; in assay [9] it was 1.7%; in assay [10], 0%; in assay [11], 4%.

For `Cc1n[nH]c(C)c1-c1ccc2c(NC(=O)c3ccc(N4CCN(C)CC4)cc3)n[nH]c2c1`, the results for the inhibition in assay [12], in [13] and in [14] were 0%, -10% and -0.7%, respectively.

With `Cc1[nH]nc(C2CC2)c1-c1ccc2c(-c3ccc(N4CCN(C)CC4)nc3)n[nH]c2c1`, the inhibition was -3.7% in [15]; 2% in assay [16]; 4.7% in [17]; 3.3% in assay [18]; 6.3% in assay [19]; 0.3% in assay [20]. The inhibition in assay [21] was -8.7%; in assay [22] it was 2.3%; in [23], 1.7%; in assay [24], 3.3%; in [25], 0.7%; in assay [26], -0.7%. Also, the inhibition in [27] is 86.3%; in assay [28], 0.7%; in assay [29], 2.7%; in [30] it was -2%; in assay [31], 9.3%; in [32], 3.7%. The results for the inhibition in [33] and in assay [34] were 29.7% and 0.7%, respectively.
